BigSolDB 2.1

[NH3+]C1CCCCC1.[S-]c1nc2ccccc2s1
solubility (mole fraction)
Settings	303.15 K	308.15 K	313.15 K	318.15 K	323.15 K	328.15 K	333.15 K	338.15 K	343.15 K	348.15 K
in 1,4-dioxane	0.000208	0.000291	0.000418	0.000608	0.000793	0.00105	0.00141	0.00169	0.00217	0.00266
in MIBK	0.000389	0.000506	0.000672	0.00085	0.00111	0.00141	0.00177	0.00215	0.00252	0.00306
in toluene	2e-05	4.26e-05	5.64e-05	6.78e-05	8.02e-05	0.000121	0.000175	0.00026	0.000344	0.000421
in water	1.32e-05	1.95e-05	2.59e-05	3.24e-05	4e-05	5.4e-05	7.55e-05	8.97e-05	0.000124	0.000164
